Measurements as given in US6392025B1, “Human NHE3 protein and non-human cells expressing same” (Tranzmembrane, LLC, priority 1995, dated 2002).
Entries after “also recorded” stand apart in the source; their conditions may differ. Where two headings read alike, the source gives them in different places.

Experiments:
human NHE3 [1] = target: T1, human NHE3 (Homo sapiens, UniProt P48764); assay: 22Na+ uptake in acid loaded HNHE3/PS120 cells; assay type: cell-based; details: 22Na+ 1 mM
T1 construct: expressed in transfected cells; host or cells: PS120 (Na+/H+ exchanger deficient derivative of Chinese hamster lung fibroblast line CCL39), plasmid pEH3 (pECE vector)
T1 sequence (P48764 26-834): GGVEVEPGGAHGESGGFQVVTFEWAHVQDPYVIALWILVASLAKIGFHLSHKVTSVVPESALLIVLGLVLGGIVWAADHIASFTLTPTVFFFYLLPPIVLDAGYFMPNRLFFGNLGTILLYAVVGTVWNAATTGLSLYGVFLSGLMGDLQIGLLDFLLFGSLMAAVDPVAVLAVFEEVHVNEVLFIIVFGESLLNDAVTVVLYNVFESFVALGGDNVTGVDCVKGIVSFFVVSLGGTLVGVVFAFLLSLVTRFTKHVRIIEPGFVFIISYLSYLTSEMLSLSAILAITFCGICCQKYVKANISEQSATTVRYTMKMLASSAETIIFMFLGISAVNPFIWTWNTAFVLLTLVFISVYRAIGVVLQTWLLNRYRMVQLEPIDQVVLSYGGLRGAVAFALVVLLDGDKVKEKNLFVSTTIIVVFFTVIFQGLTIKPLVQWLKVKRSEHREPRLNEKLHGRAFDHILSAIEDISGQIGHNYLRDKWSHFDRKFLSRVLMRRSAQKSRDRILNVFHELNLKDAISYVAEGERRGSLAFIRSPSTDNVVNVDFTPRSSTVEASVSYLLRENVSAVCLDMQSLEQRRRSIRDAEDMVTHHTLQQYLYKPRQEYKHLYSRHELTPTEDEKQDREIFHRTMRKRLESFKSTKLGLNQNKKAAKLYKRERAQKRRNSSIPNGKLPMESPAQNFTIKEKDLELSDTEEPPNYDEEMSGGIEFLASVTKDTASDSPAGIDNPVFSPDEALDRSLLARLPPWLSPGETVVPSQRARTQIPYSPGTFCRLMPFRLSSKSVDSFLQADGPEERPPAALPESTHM
Method: Stably transfected HNHE3/PS 120 cells were grown to near confluency in 24-well plates. The cells were serum-starved for 24 hours to arrest growth. ^22Na^+ uptake (1 mM) was measured during the linear phase of uptake in the presence of 1 mM ouabain and various concentrations of potential inhibitors amiloride or ethylisopropylamiloride (EIPA) following acidification with NH4Cl prepulse, as detailed previously (30).
Human brush border epithelial Na^+/H^+ exchange has been characterized as being much less sensitive to inhibition by amiloride and its 5-amino-substituted analogues than basolateral and nonepithelial membrane Na^+/H^+ exchangers (10,24,36). Therefore we determined the quantitative sensitivity of HNHE3/PS120 cells to inhibition by amiloride and EIPA by ^22Na^+ uptake studies. The concentration dependence for amiloride and EIPA inhibition of the initial rate of ^22Na^+ uptake (1 mM) into acid loaded HNHE3/PS120 cells was determined.
Three independent experiments were performed. […] FIG. 6 provides curves are from a representative experiment. Each point represents the mean percent of control ^22Na^+ uptake of duplicate experiments for each concentration of inhibitor. The curves are nonlinear least squares fits of the data assuming a single binding site for the inhibition (GraphPAD Software, Inc., San Diego, Calif.).

Rat NHE3 = Rat NHE3 (Rattus norvegicus, UniProt P26433); details: read-out: Inhibition constants (IC50); cited from earlier work
Rabbit NHE3 = Rabbit NHE3 (Oryctolagus cuniculus, UniProt P26432); details: read-out: Inhibition constants (IC50); cited from earlier work
human NHE3 [2] = target: T1, human NHE3; assay: Na+/H+ exchange activity by BCECF fluorescence (pHi) in HNHE3/PS120 cells; assay type: cell-based
Method: HNHE3/PS120 cells were grown to 70-80% confluency on glass coverslips, serum starved overnight to arrest growth, washed with Na^+ medium (containing in mM: 130 NaCl, 5 KCl, 2 CaCl2, 1 MgSO4, 1 NaPO4, 25 glucose, 20 HEPES, pH 7.4) and loaded with the acetoxymethyl ester of 2′,7′-bis(2-carboxyethyl)-5-(and-6)carboxyfluorescein (BCECF) as previously discussed (31). Cells were washed with TMA medium (containing in mM: 130 tetramethylammonium-C1, 5 KCl, 2 CaCl2 1 MgSO4, 1 TMA-P04, 25 glucose, 20 HEPES, pH 7.4), mounted in a cuvette, and perfused at 37° C. Cells were acidified by perfusing with 30 mM NH4Cl prepulse followed by removal of NH4Cl with TMA medium. The cuvette was then perfused with Na^+ medium. […] Na^+/H^+ exchange was determined by multiplying the initial rate of Na^+ dependent alkalinization by intracellular buffering capacity, as described.
HNHE3/PS120 cells loaded with BCECF were acidified by NH4Cl prepulse.
Serum starved HNHE3/PS120 cells were acidified by a NH4Cl prepulse and allowed to recover in 130 mM Na^+ medium until steady-state pHi was obtained.

[3] = mean of three independent experiments, read-out: Inhibition constants (IC50) of 22Na+ uptake, mean
[4] = single representative experiment, nonlinear least squares fit, read-out: IC50 of the representative curves (FIG. 6)

Chain of Rat NHE3 (P26433 29-831): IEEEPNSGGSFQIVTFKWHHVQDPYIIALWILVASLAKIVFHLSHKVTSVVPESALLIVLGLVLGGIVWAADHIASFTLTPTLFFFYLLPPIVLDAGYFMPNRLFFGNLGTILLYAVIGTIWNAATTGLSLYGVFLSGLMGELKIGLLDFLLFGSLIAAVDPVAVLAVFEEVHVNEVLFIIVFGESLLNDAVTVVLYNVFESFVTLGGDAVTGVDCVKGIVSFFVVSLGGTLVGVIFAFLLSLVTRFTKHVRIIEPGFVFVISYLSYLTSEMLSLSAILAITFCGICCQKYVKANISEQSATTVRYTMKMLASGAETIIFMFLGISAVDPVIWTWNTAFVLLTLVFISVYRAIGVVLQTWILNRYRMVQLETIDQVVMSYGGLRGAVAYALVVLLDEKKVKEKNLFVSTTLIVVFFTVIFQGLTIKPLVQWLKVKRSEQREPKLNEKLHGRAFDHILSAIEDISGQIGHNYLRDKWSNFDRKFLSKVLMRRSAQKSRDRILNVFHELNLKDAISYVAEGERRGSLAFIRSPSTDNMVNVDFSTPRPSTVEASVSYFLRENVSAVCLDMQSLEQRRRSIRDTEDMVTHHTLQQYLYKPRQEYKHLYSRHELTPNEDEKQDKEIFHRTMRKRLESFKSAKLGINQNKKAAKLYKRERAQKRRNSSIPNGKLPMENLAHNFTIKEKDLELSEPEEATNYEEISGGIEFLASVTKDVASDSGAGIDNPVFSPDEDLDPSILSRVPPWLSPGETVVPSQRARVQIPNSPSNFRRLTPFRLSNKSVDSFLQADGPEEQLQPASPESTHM
Chain of Rabbit NHE3 (P26432 30-832): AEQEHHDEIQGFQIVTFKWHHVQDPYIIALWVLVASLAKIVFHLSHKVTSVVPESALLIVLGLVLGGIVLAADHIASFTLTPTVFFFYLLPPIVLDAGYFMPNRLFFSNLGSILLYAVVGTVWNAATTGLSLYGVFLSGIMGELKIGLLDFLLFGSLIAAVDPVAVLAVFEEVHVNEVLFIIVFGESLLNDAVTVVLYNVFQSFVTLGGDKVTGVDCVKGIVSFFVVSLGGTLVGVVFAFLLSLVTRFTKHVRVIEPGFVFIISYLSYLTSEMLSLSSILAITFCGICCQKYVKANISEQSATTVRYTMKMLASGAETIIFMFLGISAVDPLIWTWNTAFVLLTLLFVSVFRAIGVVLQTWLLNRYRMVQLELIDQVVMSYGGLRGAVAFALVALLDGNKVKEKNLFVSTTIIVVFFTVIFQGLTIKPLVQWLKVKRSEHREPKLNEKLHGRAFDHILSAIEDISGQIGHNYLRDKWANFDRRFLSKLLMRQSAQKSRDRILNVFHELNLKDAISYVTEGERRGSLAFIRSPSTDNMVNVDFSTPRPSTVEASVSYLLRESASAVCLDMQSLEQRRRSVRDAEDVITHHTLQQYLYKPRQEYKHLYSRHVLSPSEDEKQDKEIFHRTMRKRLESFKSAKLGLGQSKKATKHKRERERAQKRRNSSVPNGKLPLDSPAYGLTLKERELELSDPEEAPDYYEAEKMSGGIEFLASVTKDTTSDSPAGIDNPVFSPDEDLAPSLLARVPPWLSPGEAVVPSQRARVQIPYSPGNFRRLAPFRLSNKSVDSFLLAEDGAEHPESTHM

N=C(N)NC(=O)c1nc(Cl)c(N)nc1N [Amiloride, amiloride]
IC50 (human NHE3 [1]; [3]): 49 µM | IC50 (human NHE3 [1]; [4]): 59 µM | IC50 (Rat NHE3): 100 µM | IC50 (Rabbit NHE3): 39 µM

CCCCCCCCCCCCCC(=O)O[C@@H]1[C@@H](C)[C@@]2(O)[C@@H](C=C(CO)C[C@]3(O)C(=O)C(C)=C[C@@H]23)[C@@H]2C(C)(C)[C@]12OC(C)=O [PMA, phorbol 12-myristate 13-acetate]
ΔpHi at steady state after addition (human NHE3 [2]; FGF 10 ng/ml (n=4) or PMA 1.0 μM (n=5), 130 mM Na+ medium, controls −0.006±0.012): −0.052±0.006 | time to reach new steady state pHi (average) (human NHE3 [2]; FGF 10 ng/ml or PMA 1.0 μM added at steady-state pHi): less than 2 min | effect on human NHE3 Na+/H+ exchange activity (in words) (human NHE3 [2]; FGF 10 ng/ml, 8-bromo-cAMP 0.5 mM, PMA 1.0 μM, at steady-state pHi): inhibition of the transfected Na^+/H^+ exchanger; also recorded: inhibited

CCN(c1nc(N)c(C(=O)NC(=N)N)nc1Cl)C(C)C [Ethylisopropylamiloride, ethylisopropylamiloride]
IC50 (human NHE3 [1]; [3]): 6.6 µM | IC50 (human NHE3 [1]; [4]): 8.8 µM | IC50 (Rat NHE3): 2.4 µM | IC50 (Rabbit NHE3): 8 µM
